In ChEMBL document CHEMBL1138271, “Discovery of 5-substituted-6-chlorouracils as efficient inhibitors of human thymidine phosphorylase” (J Med Chem, 2007):

Experiments:
Thymidine phosphorylase [1] = molecular target: T1, Thymidine phosphorylase (Homo sapiens, UniProt P19971); assay: Inhibition of human recombinant thymidine phosphorylase expressed in V79 cells; assay type: cell-based
T1 sequence (P19971 whole entry): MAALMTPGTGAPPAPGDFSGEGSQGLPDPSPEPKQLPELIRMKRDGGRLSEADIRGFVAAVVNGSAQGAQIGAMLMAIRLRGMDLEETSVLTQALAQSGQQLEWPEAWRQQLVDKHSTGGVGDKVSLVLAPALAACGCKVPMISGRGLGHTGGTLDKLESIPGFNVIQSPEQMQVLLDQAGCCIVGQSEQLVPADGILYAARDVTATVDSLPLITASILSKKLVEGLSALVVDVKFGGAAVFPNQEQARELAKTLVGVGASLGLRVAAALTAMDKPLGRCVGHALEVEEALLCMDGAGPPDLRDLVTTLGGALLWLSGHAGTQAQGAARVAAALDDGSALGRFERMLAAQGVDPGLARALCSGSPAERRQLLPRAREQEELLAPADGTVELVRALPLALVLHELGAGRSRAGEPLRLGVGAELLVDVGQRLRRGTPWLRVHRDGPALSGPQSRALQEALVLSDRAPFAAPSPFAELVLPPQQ

Thymidine phosphorylase [2] = molecular target: T1, Thymidine phosphorylase; assay: Inhibition of human placental thymidine phosphorylase
[3] = Acid dissociation constant, pKa of the compound; assay type: physicochemical

SMILES | Ki (Thymidine phosphorylase [1]) [µM] | Ki (Thymidine phosphorylase [2]) [µM] | pKa [3]
NCCNc1[nH]c(=O)[nH]c(=O)c1-c1ccccc1 | > 20 | > 20 | 
CCc1c(Cl)[nH]c(=O)[nH]c1=O | > 20 | > 20 | 
O=c1[nH]c(Cl)c(C2=CCCC2)c(=O)[nH]1 |  |  | 5.8
Cc1[nH]c(=O)[nH]c(=O)c1-c1ccccc1 | > 20 | > 20 | 
O=c1[nH]c(N2CCCC2)c(-c2ccccc2)c(=O)[nH]1 | > 20 | > 20 | 
